Test systems include NCI-H460 lung; DMS 273 small cell lung; A498 renal; LOX IMVI melanoma; NCI/ADR-RES ovarian; HCT-15 colon; CCRF-CEM leukemia; KM12 colon; HCT-116 colon; DMS 114 small cell lung; LXFL 529 NSCLC; SNB-78 CNS.
Test in all cases: inhibition of tumour cell growth, NCI panel, 48 h

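Cultured in 96-well plates, cells were exposed to test compound for 48 hours across five concentrations. TGI: concentration producing complete growth inhibition.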

For the compound `Cc1c2cc[n+](C)cc2c(C)c2c1sc1ccccc12`, the TGI was 6.02 µM in the test with NCI-H460 lung; 7 µM in the test with DMS 273 small cell lung; 13.6 µM in the test with A498 renal; 22.1 µM in the test with LOX IMVI melanoma; over 100 µM in the test with NCI/ADR-RES ovarian; over 100 µM with HCT-15 colon. The TGI with CCRF-CEM leukemia was found to be 13.8 µM; in the test on KM12 colon it was 2.97 µM; with HCT-116 colon it was 23.7 µM; in the test on DMS 114 small cell lung it was 2.57 µM; in the test on LXFL 529 NSCLC, 5.13 µM; in the test with SNB-78 CNS, 8.41 µM.
Turning to `COc1c(C=O)c2c(c(OC)c1OC)-c1ccc(OC)c(=O)cc1[C@@H](NC(C)=O)CC2`, the TGI in the test with NCI-H460 lung is 18.7 µM; with DMS 273 small cell lung it was over 100 µM; in the test with A498 renal, 14.8 µM; in the test with LOX IMVI melanoma, 49.8 µM; in the test with HCT-15 colon, over 100 µM; in the test with CCRF-CEM leukemia, over 100 µM. Moreover, the TGI with KM12 colon was 0.632 µM; in the test on HCT-116 colon, 1.05 µM; in the test with DMS 114 small cell lung, 0.0364 µM; in the test with LXFL 529 NSCLC it was over 100 µM; in the test with SNB-78 CNS, over 67.6 µM.
In the case of `COc1ccc(C2CC(=O)c3c(O)cc(O)cc3O2)cc1O` (configuration not stated), the TGI with NCI-H460 lung, with DMS 273 small cell lung, with A498 renal, in the test with LOX IMVI melanoma, in the test on HCT-15 colon and in the test with CCRF-CEM leukemia was over 100 µM in each case. In addition, the TGI with KM12 colon, in the test with HCT-116 colon, in the test with DMS 114 small cell lung, in the test on LXFL 529 NSCLC and in the test with SNB-78 CNS was over 100 µM throughout.
Regarding `CN1C(=O)CC(c2cccc(C3CC(=O)N(C)C3=O)n2)C1=O` (configuration not stated), the TGI in the test on NCI-H460 lung, in the test with DMS 273 small cell lung, in the test with A498 renal, in the test with LOX IMVI melanoma, in the test on HCT-15 colon and in the test on CCRF-CEM leukemia was over 100 µM throughout. Besides, the TGI in the test on KM12 colon, with HCT-116 colon, in the test on DMS 114 small cell lung, with LXFL 529 NSCLC and with SNB-78 CNS was over 100 µM each time.
Turning to `COc1cc(/C=C/c2ccncc2)cc(OC)c1OC`, the TGI in the test on NCI-H460 lung, in the test on DMS 273 small cell lung, in the test with A498 renal, in the test with LOX IMVI melanoma, with HCT-15 colon and with CCRF-CEM leukemia was over 100 µM each time. In addition, the TGI with KM12 colon, in the test with HCT-116 colon, with DMS 114 small cell lung, with LXFL 529 NSCLC and in the test with SNB-78 CNS was over 100 µM throughout.
In the case of `OC1[C@H]([C@H]2CCCC[C@@H]2O)CCC[C@@H]1[C@@H]1CCCC[C@H]1O` (some centres not stated), the TGI with NCI-H460 lung, with DMS 273 small cell lung, in the test with A498 renal, with LOX IMVI melanoma, in the test with HCT-15 colon and in the test with CCRF-CEM leukemia was over 100 µM in each case. Further, the TGI in the test on KM12 colon, in the test with HCT-116 colon, in the test on DMS 114 small cell lung, with LXFL 529 NSCLC and with SNB-78 CNS was over 100 µM each time.
With `COC(=O)C1=C(c2ccc(OC)c(OC)c2)OC(c2ccc(OC)c(OC)c2)C1` (configuration not stated), the TGI in the test with NCI-H460 lung was over 100 µM; in the test with DMS 273 small cell lung, over 100 µM; with A498 renal, 46.9 µM; in the test with LOX IMVI melanoma, over 100 µM; with HCT-15 colon, over 100 µM; with CCRF-CEM leukemia, over 100 µM. The TGI was over 100 µM with KM12 colon; over 100 µM in the test on HCT-116 colon; 77.5 µM in the test on DMS 114 small cell lung; 62.1 µM with LXFL 529 NSCLC; over 100 µM in the test on SNB-78 CNS.
Turning to `Cc1cc(N(CCC#N)CCC#N)ccc1/C=C1N=C(/C=C\c2ccccc2)OC\1=O`, the TGI with NCI-H460 lung, with DMS 273 small cell lung, in the test with A498 renal, in the test on LOX IMVI melanoma, in the test with HCT-15 colon and with CCRF-CEM leukemia was over 100 µM each time. Besides, the TGI with KM12 colon, in the test with HCT-116 colon, in the test on DMS 114 small cell lung, in the test on LXFL 529 NSCLC and with SNB-78 CNS was over 100 µM in each case.
For the compound `CS/C(=N\C(=S)N(C)C)N(c1ccccc1)c1nc(=[N+](C)C)ss1`, the TGI in the test with NCI-H460 lung was 25.7 µM; in the test with DMS 273 small cell lung, 15.4 µM; in the test with A498 renal it was 7.04 µM; in the test with LOX IMVI melanoma, 18.1 µM; with HCT-15 colon, over 100 µM; in the test with CCRF-CEM leukemia, 8.45 µM. For the same compound, the TGI in the test on KM12 colon stood at 15.8 µM; in the test on HCT-116 colon, 21.7 µM; in the test with DMS 114 small cell lung, 2.28 µM; with LXFL 529 NSCLC, 15.9 µM; in the test on SNB-78 CNS, 92.8 µM.
Consider `COC(=O)[C@@]12C(=O)C=CC(=O)[C@@H]1C1C(=CC2COC(C)=O)O[C@@H]2OC3(CCCCC3)O[C@H]12` (some centres not stated), for which the TGI was determined as 32.9 µM in the test on NCI-H460 lung; 23.6 µM in the test with DMS 273 small cell lung; 37.4 µM in the test with A498 renal; 24.6 µM in the test on LOX IMVI melanoma; 28.7 µM in the test with NCI/ADR-RES ovarian; 18.7 µM in the test with HCT-15 colon. Further, the TGI in the test with CCRF-CEM leukemia came out at 17 µM; with KM12 colon, 26.5 µM; in the test on HCT-116 colon, 15.5 µM; in the test with DMS 114 small cell lung it was 13.5 µM; in the test on LXFL 529 NSCLC, 15 µM; in the test on SNB-78 CNS, 51 µM.
